According to the OPERA property sets (Mansouri et al. 2018):

Compound `CCCCCCCC(=O)n1cc(CC(NC(=O)CC2NC(=O)C3C4CCC(CC4)N3C2=O)C(=O)NC(Cc2ccccc2)C(=O)N(C)Cc2ccccc2)c2ccccc21` (stereo not given) has a logP of 7.29.
With `CCCC(=O)n1c(=O)[nH]cc(F)c1=O` the logP was 0.67.
With `CCOP(=O)(OCC)Oc1ccc([N+](=O)[O-])cc1` the logP was 1.98.
Compound `NS(=O)(=O)c1cc2c(cc1Cl)NC(C(Cl)(Cl)Cl)NS2(=O)=O` (stereo not given) has a logP of 0.82.
Compound `CNC(=S)NCC#CCC(NC(=O)C(Cc1ccc2ccccc2c1)Cc1cccc2ccccc12)C(=O)NC(CC1CCCCC1)C(O)CC(=O)NCCN1CCOCC1` (stereo not given) has a logP of 5.46.
Work on `CCCCCCCS[C@@H]1O[C@H](CO)[C@H](O)[C@H](O)[C@H]1O` yielded a logP of 1.5.
With `CCCCCCCCO[C@@H]1O[C@H](CO)[C@H](O)[C@H](O)[C@H]1O` the logP was 1.46.
With `COP(=S)(OC)Oc1cc(Cl)c(Cl)cc1Cl` the logP was 4.88.
Compound `CNc1nc(C)c(C(=O)CCN2CCCC2)s1` has a logP of 1.86.
`CCNC(=O)CCn1ccc(=O)c(O)c1C` showed a logP of -0.82.
`O=C(O)CCc1ccc(OCc2ccccc2)cc1` gave a logP of 3.31.
Compound `COc1ccc(CON2C(=O)CC3(CCCC3)C2=O)cc1` has a logP of 2.23.
For `CC1OC(=O)C(C)C(O)C1C` (stereo not given), the logP was 0.36.
In the case of `O=C(O)COc1ccc(Oc2ccc(Cl)cc2Cl)cc1`, the logP is reported as 4.51.
Work on `NC(=S)c1ccc([N+](=O)[O-])cc1` yielded a logP of 1.75.
`CCCc1ccc(OCC(OC(=O)n2ccnc2)C(C)(C)C)cc1` (stereo not given) gave a logP of 4.73.
For `CC(=O)Nc1nc(NC(O)CC(O)CO)c(Cl)nc1[N+](=O)[O-]` (stereo not given), the logP was -0.66.
With `Nc1c(Cl)cccc1Cl` the logP was 2.76.
For `CNC(=O)Oc1cc(C)ccc1C(C)C`, the logP was 2.84.
Compound `Cc1ccc(C)c(Oc2cccc(C(=O)NC(C)C)c2)c1` has a logP of 4.35.
In the case of `Cc1cc2c(cc1S(N)(=O)=O)S(=O)(=O)NC=N2`, the logP is reported as -0.32.
In the case of `CC1c2cccc(O)c2C(=O)C2=C(O)C3(O)C(=O)C(C(N)=O)=C(O)C(N(C)C)C3C(O)C21` (stereo not given), the logP is reported as -0.02.
Compound `COC(=O)NC1=NCC(c2cc(Br)ccc2Br)N1C` (stereo not given) has a logP of 2.77.
In the case of `CC1=C(C(=O)O)N2C(=O)C(NC(NC(=O)c3nn(-c4ccccc4)c(=O)[nH]c3=O)c3ccc(O)cc3)C2SC1` (stereo not given), the logP is reported as 1.26.
Compound `COc1ccc2c(c1)[nH]c1c(C)nccc12` has a logP of 3.56.
`COC1CC(OC2CCC3(C)C2CCC2C3CCC3(C)C(C4=CC(=O)OC4)CCC23O)OC(C)C1O` (stereo not given) gave a logP of 2.37.
In the case of `CCc1nc(S(=O)(=O)Nc2c(F)cccc2F)nn1-c1ccccc1`, the logP is reported as 3.7.
`CCCCCCCCn1ccc(=O)c(O)c1C` gave a logP of 2.88.
For `Cc1cccc(C)c1C(=O)CCN1CCCCC1`, the logP was 3.53.
Work on `Cc1ccc2c(c1)C1CN(C)CCC1N2C(=O)C=Cc1ccccc1` (stereo not given) yielded a logP of 3.49.
With `Oc1ccc(C(O)(Cn2ccnc2)c2ccc(-c3ccncc3)cc2)cc1` (stereo not given) the logP was 2.49.
`Nc1cccc(S(=O)(=O)[O-])c1.[Na+]` showed a logP of -3.4.
For `CCCCn1ccc(=O)c(O)c1CC`, the logP was 1.22.
Compound `Clc1ccc(C(c2ccc(Cl)cc2)C(Cl)Cl)cc1` has a logP of 6.02.
Work on `CC1CCC2C(C)C(O)OC3OC4(C)CCC1C32OO4` (stereo not given) yielded a logP of 2.19.
In the case of `CCNC(=O)NCCCCn1nc(-c2ccccc2)ccc1=O`, the logP is reported as 1.83.
In the case of `CCC(=O)n1c(=O)[nH]cc(F)c1=O`, the logP is reported as 0.19.
Compound `Nc1ccc(Cl)cc1Cl` has a logP of 2.78.
For `Cc1c(O)c(=O)ccn1CCCCO`, the logP was -0.74.
Compound `CCOC(=O)NC1=NCC(c2cccc(F)c2)N1C` (stereo not given) has a logP of 1.84.
`COc1cc(C(N)=O)ccc1-c1nc2ccncc2[nH]1` showed a logP of 1.18.
For `CNc1nc(C)c(C(=O)CCN2CCCCC2)s1`, the logP was 2.21.
Compound `N#CCCO` has a logP of -0.94.
Work on `CN(c1ccccc1)S(C)(=O)=O` yielded a logP of 1.02.
With `O=C(c1c(F)c(F)c(F)c(F)c1F)c1ccc2n1CCC2C(=O)O` (stereo not given) the logP was 3.24.
`CCOC(=O)c1cnc2n(c1=O)CCC(C)C2` (stereo not given) showed a logP of 0.66.
Work on `CC(C)c1ccc(OCC(OC(=O)n2ccnc2)C(C)(C)C)cc1` (stereo not given) yielded a logP of 4.77.
`NS(=O)(=O)c1ccc(Cl)c([N+](=O)[O-])c1` gave a logP of 0.66.
Work on `O=c1ccnc2n1CCCC2` yielded a logP of -0.14.
With `CC(C)(C)C(=O)OCC1OC(n2cc(I)c(=O)[nH]c2=O)CC1O` (stereo not given) the logP was 1.34.
For `CN1CC(O)CN(C)C1=Nc1ncc([N+](=O)[O-])s1` (stereo not given), the logP was 0.16.
`CCc1c(O)c(=O)ccn1CCO` gave a logP of -0.66.
In the case of `OCCN(CCO)Cc1cccc(COc2ccccc2)c1`, the logP is reported as 2.33.
Compound `CC(C)(C)C(COc1ccc(-c2ccccc2)cc1)OC(=S)n1ccnc1` (stereo not given) has a logP of 6.06.
For `COC(=O)NC1=NCC(c2cccc(Br)c2)N1` (stereo not given), the logP was 2.09.
`NC1C2CCC1c1ccc(C(F)(F)F)cc1C2` (stereo not given) gave a logP of 3.54.
Work on `COc1ccc2cc(C(C)C(=O)OCC=C(C)CCC=C(C)C)ccc2c1` (stereo not given) yielded a logP of 7.77.
`Nc1nc(=O)n(C2OC(CO)CC2F)cc1Cl` (stereo not given) gave a logP of -0.46.
`CSc1ccc(OCC(OC(=O)n2ccnc2)C(C)(C)C)cc1` (stereo not given) gave a logP of 4.03.
In the case of `CC(=O)Nc1n[nH]c(C)cc1=O`, the logP is reported as -0.89.
In the case of `Cc1cccc(Nc2c([N+](=O)[O-])c(C)nn2-c2ccccc2)c1`, the logP is reported as 3.25.
`O=C1CN=C(c2ccccc2F)c2cc(Cl)ccc2N1CC(F)(F)F` showed a logP of 3.36.
Work on `CCN(C)C(=O)CCn1ccc(=O)c(O)c1C` yielded a logP of -0.69.
Work on `COc1ccc(COCc2cccc(CN3CCOCC3)c2)cc1` yielded a logP of 2.83.
With `Nc1c(Cl)c(Cl)cc(Cl)c1Cl` the logP was 4.1.
In the case of `CC(N)C(=O)O` (stereo not given), the logP is reported as -2.85.
For `NC(=O)c1cnc2n(c1=O)CCCC2`, the logP was -0.38.
`CCC(CC)(C(=O)NC(N)=O)C(=O)OCC(=O)OC` gave a logP of 0.99.
Work on `CC(=O)NC1=NC(=O)C(=Cc2ccc([N+](=O)[O-])o2)S1` yielded a logP of 1.03.
`CC(Cl)CCl` (stereo not given) gave a logP of 1.98.
For `Nc1ccc(C(=O)O)cc1I`, the logP was 2.36.
For `CCOC(=O)C1=CNC2CCCCN2C1=O` (stereo not given), the logP was 0.57.
For `CN(C)C(=O)OCc1cccc([N+](=O)[O-])c1`, the logP was 1.98.
With `CCCCN(C)N=Nc1ccc(C(N)=O)cc1` the logP was 2.46.
`Cc1ccc(C(=O)C(C)CN2CCCCC2)cc1` (stereo not given) showed a logP of 3.65.
`Clc1cccc(Cl)c1Cl` showed a logP of 4.05.
In the case of `CC(C)C1NC(=O)NC1=O` (stereo not given), the logP is reported as -0.36.
Work on `CCn1cc(C(=O)O)c(=O)c2cc3c(cc21)OCO3` yielded a logP of 0.94.
Work on `O=c1[nH]c(=O)n(C2OC(CO)CC2F)cc1F` (stereo not given) yielded a logP of -0.72.
In the case of `CCCC(CC)C(=O)O` (stereo not given), the logP is reported as 2.23.
Work on `CC(CCC(=O)NCc1ccccc1)C1CCC2C3C(O)CC4CC(O)CCC4(C)C3CC(O)C12C` (stereo not given) yielded a logP of 3.54.
`CCC(CC)(C(=O)NC(N)=S)C(=O)OC` gave a logP of 1.82.
`O=C(O)C=Cc1ccc(O)cc1` gave a logP of 1.46.
Compound `COc1cc(S(C)=O)ccc1-c1nc2ncc(N)cc2[nH]1` (stereo not given) has a logP of 0.33.
In the case of `CCCCCCCO`, the logP is reported as 2.62.
With `O=C(O)c1cccc(Cl)n1` the logP was 1.5.
`Nc1nc(N)c2ncn([C@H]3C=C[C@@H](CO)O3)c2n1` gave a logP of -0.48.
For `Nc1cc(Cl)ccc1Cl`, the logP was 2.75.
Compound `CC(C)(C)C(COc1ccc(-c2ccccc2)cc1)OC(=O)n1ccnc1` (stereo not given) has a logP of 4.56.
In the case of `Nc1c(Cl)cc(Cl)cc1Cl`, the logP is reported as 3.52.
`CN1C(=O)C(C)(C2=CCCCC2)C(=O)N=C1O` (stereo not given) gave a logP of 1.98.
Work on `CCOC(=O)NC1=NCC(c2ccc(CO)cc2)N1C` (stereo not given) yielded a logP of 0.84.
Compound `O=C(O)COc1ccccc1[N+](=O)[O-]` has a logP of 1.13.
`CNC(=O)c1cccc(Oc2cc(C)ccc2C)c1` gave a logP of 3.76.
`CCCCC(=O)OC[C@H]1O[C@@H](n2cc(I)c(=O)[nH]c2=O)C[C@@H]1O` showed a logP of 1.44.
Compound `O=C1CN=C(c2ccccn2)c2cc(Br)ccc2N1` has a logP of 2.05.
Work on `Cc1onc(-c2ccccc2Cl)c1C(=O)NC1C(=O)N2C1SC(C)(C)C2C(=O)O` (stereo not given) yielded a logP of 2.48.
In the case of `N[C@H]1CCc2ccccc2[C@H]1O`, the logP is reported as 0.86.
With `CCOP(=O)(O)Cc1ccc(Cl)cc1` the logP was 1.6.
`COc1cccc(C(=O)NC2CCN(Cc3ccc(F)cc3)CC2)c1OC` showed a logP of 2.87.
With `COc1cc(C(N)=O)ccc1-c1cn2cccnc2n1` the logP was 0.7.
For `N#Cc1ccccn1`, the logP was 0.45.
`CCC(C(=O)OCCc1ccccc1)C(CO)Cc1cncn1C` (stereo not given) gave a logP of 2.31.
`CC(C)COC(=O)N(C)C` gave a logP of 2.
`OC(Cn1ccnc1)(c1ccccc1)c1ccc(Br)cc1` (stereo not given) gave a logP of 3.35.
`CCN1CCc2nc(N)oc2CC1` showed a logP of 0.05.
Work on `Nc1ccc(Cl)c(Cl)c1Cl` yielded a logP of 3.33.
Work on `OC(Cn1ccnc1)(c1ccc(F)cc1)c1ccc(F)cc1` yielded a logP of 2.95.
In the case of `CNC12CC(O)CCC1CCc1ccccc12` (stereo not given), the logP is reported as 2.37.
In the case of `CCC1(c2ccccc2)NC(=O)N(C)C1=O` (stereo not given), the logP is reported as 1.69.
